From patent publication US8906848B2, “Aureobasidin derivatives and methods of synthesis” (priority 2011, dated 2014)
In brackets after ≈: the same amount, converted by molar mass. Read-outs that look alike come from different tables or passages of the source.

Columns and labels:
[1] = tested on: Aspergillus niger 624 (ATCC16888); experiment: MIC, antifungal spectrum (Table 3); assay type: cell-based
Procedure: (§1) The activities of several exemplary compounds of the present invention were assayed according to the CLSI standard M38-A2 titled “Reference Method for Broth Dilution Antifungal Susceptibility Testing of Filamentous Fungi”. However, the RPMI-1640 broth is substituted for a YPD medium formulated according to the following steps: […]
(§2) 1. Dissolve 10 g of BactoYeast extract in 500 ml water
(§3) 2. Dissolve 20 g of BactoPeptone in the above solution
(§4) 3. Dissolve 20 g Dextrose in the above solution* *Ordinary table sugar (sucrose) substituted for dextrose routinely.
(§5) 4. q.s. to 1000 ml with water

[2] = tested on: Trychophyton rubrum 5279 (ATCC MYA-4438); experiment: MIC, antifungal spectrum (Table 3); assay type: cell-based; conditions: at 72 hrs, read-out: MIC
Procedure: as §1, §2, §3, §4, §5

[3] = tested on: Aspergillus flavus 122 (ATCC22546); experiment: MIC, antifungal spectrum (Table 3); assay type: cell-based
Procedure: as §1, §2, §3, §4, §5

[4] = tested on: Aspergillus fumigatus 891 (ATCC204305); experiment: MIC, antifungal spectrum (Table 3); assay type: cell-based
Procedure: as §1, §2, §3, §4, §5

[5] = tested on: Rhizopus oryzae 0890 (ATCC11886); experiment: MIC, antifungal spectrum (Table 3); assay type: cell-based; conditions: Rhizopus arrhizus
Procedure: as §1, §2, §3, §4, §5

[6] = tested on: Fusarium oxysporum 0893 (ATCC48112); experiment: MIC, antifungal spectrum (Table 3); assay type: cell-based; conditions: at 96 hr, read-out: MIC
Procedure: as §1, §2, §3, §4, §5

[7] = tested on: Candida lusitaniae 631 (ATCC66035); experiment: MIC, antifungal spectrum (Table 3); assay type: cell-based; conditions: Clavispora lusitaniae
Procedure: as §1, §2, §3, §4, §5

[8] = tested on: Aspergillus ochraceus 625 (ATCC96919); experiment: MIC, antifungal spectrum (Table 3); assay type: cell-based
Procedure: as §1, §2, §3, §4, §5

[9] = tested on: Aspergillus candidus 450 (ATCC13686); experiment: MIC, antifungal spectrum (Table 3); assay type: cell-based
Procedure: as §1, §2, §3, §4, §5

[10] = tested on: Aspergillus clavatus 638 (ATCC10058); experiment: MIC, antifungal spectrum (Table 3); assay type: cell-based
Procedure: as §1, §2, §3, §4, §5

[11] = tested on: Candida glabrata 635 (ATCC90030); experiment: MIC, antifungal spectrum (Table 3); assay type: cell-based; conditions: Nakaseomyces glabratus
Procedure: as §1, §2, §3, §4, §5

[12] = tested on: Candida albicans 2486 (ATCC204276); experiment: MIC, antifungal spectrum (Table 3); assay type: cell-based
Procedure: as §1, §2, §3, §4, §5

[13] = tested on: Aspergillus fumigatus 5280 (ATCC MYA-3626); experiment: MIC, antifungal spectrum (Table 3); assay type: cell-based
Procedure: as §1, §2, §3, §4, §5

[14] = tested on: Saccharomyces cerevisiae 0639 (ATCC7754); experiment: MIC, antifungal spectrum (Table 3); assay type: cell-based
Procedure: as §1, §2, §3, §4, §5

[15] = tested on: Aspergillus flavus 4787 (ATCC204304); experiment: MIC, antifungal spectrum (Table 3); assay type: cell-based
Procedure: as §1, §2, §3, §4, §5

[16] = tested on: Candida albicans 2000 (ATCC10231); experiment: MIC, antifungal spectrum (Table 3); assay type: cell-based
Procedure: as §1, §2, §3, §4, §5

[17] = tested on: Candida albicans 2487 (ATCC MYA-2732); experiment: MIC, antifungal spectrum (Table 3); assay type: cell-based
Procedure: as §1, §2, §3, §4, §5

[18] = tested on: Emericella nidulans 637 (ATCC96921); experiment: MIC, antifungal spectrum (Table 3); assay type: cell-based; conditions: Aspergillus nidulans
Procedure: as §1, §2, §3, §4, §5

[19] = tested on: Candida parapsilosis 0630 (ATCC90018); experiment: MIC, antifungal spectrum (Table 3); assay type: cell-based; conditions: Lodderomyces parapsilosis
Procedure: as §1, §2, §3, §4, §5

[20] = tested on: Trychophyton mentagrophytes 5278 (ATCC MYA-4439); experiment: MIC, antifungal spectrum (Table 3); assay type: cell-based; conditions: at 96 hrs, read-out: MIC
Procedure: as §1, §2, §3, §4, §5

[21] = tested on: Issatchenkia orientalis 2322 (ATCC6258); experiment: MIC, antifungal spectrum (Table 3); assay type: cell-based; conditions: Pichia kudriavzevii
Procedure: as §1, §2, §3, §4, §5

[22] = tested on: Trychophyton mentagrophytes 640 (ATCC 28185); experiment: MIC, antifungal spectrum (Table 3); assay type: cell-based
Procedure: as §1, §2, §3, §4, §5

[23] = tested on: Candida krusei 629 (ATCC14243); experiment: MIC, antifungal spectrum (Table 3); assay type: cell-based; conditions: Pichia kudriavzevii
Procedure: as §1, §2, §3, §4, §5

[24] = tested on: Candida guilliermondii 628 (ATCC34134); experiment: MIC, antifungal spectrum (Table 3); assay type: cell-based; conditions: Meyerozyma guilliermondii
Procedure: as §1, §2, §3, §4, §5

[25] = tested on: Sporothrix schenkii 892 (ATCC14284); experiment: MIC, antifungal spectrum (Table 3); assay type: cell-based; conditions: at 96 hrs, read-out: MIC
Procedure: as §1, §2, §3, §4, §5

[26] = tested on: Candida parapsilosis 2323 (ATCC22019); experiment: MIC, antifungal spectrum (Table 3); assay type: cell-based; conditions: Lodderomyces parapsilosis
Procedure: as §1, §2, §3, §4, §5

[27] = tested on: Candida albicans 633 (ATCC90029); experiment: MIC, antifungal spectrum (Table 3); assay type: cell-based
Procedure: as §1, §2, §3, §4, §5

[28] = tested on: Candida tropicalis 4783 (ATCC750); experiment: MIC, antifungal spectrum (Table 3); assay type: cell-based
Procedure: as §1, §2, §3, §4, §5

[29] = tested on: Aspergillus flavus 626 (ATCC64025); experiment: MIC, antifungal spectrum (Table 3); assay type: cell-based
Procedure: as §1, §2, §3, §4, §5

[30] = tested on: Candida tropicalis 636 (ATCC90874); experiment: MIC, antifungal spectrum (Table 3); assay type: cell-based
Procedure: as §1, §2, §3, §4, §5

[31] = tested on: Candida albicans 104 (ATCC90028); experiment: MIC, antifungal spectrum (Table 3); assay type: cell-based
Procedure: as §1, §2, §3, §4, §5

[32] = tested on: Candida albicans 4782 (ATCC24433); experiment: MIC, antifungal spectrum (Table 3); assay type: cell-based
Procedure: as §1, §2, §3, §4, §5

[33] = tested on: Aspergillus fumigatus 5280 (ATCC MYA-3626); conditions: at 48 hrs; cited from earlier work
[34] = tested on: Candida parapsilosis 2323 (ATCC22019); conditions: cited from earlier work

MIC ([1]; 48 hr reading): 0.03 µg/mL (≈ 0.0325 µM) | MIC ([1]; 72 hr reading): 0.125 µg/mL (≈ 0.135 µM) | MIC [2]: 0.03 µg/mL (≈ 0.0325 µM) | MIC ([3]; 48 hr reading): 0.25 µg/mL (≈ 0.271 µM) | MIC ([3]; 72 hr reading): 0.25 µg/mL (≈ 0.271 µM) | MIC ([4]; 48 hr reading): 0.25 µg/mL (≈ 0.271 µM) | MIC ([4]; 72 hr reading): 1 µg/mL (≈ 1.08 µM) | MIC ([5]; 48 hr reading): 0.03 µg/mL (≈ 0.0325 µM) | MIC ([5]; 72 hr reading): 0.03 µg/mL (≈ 0.0325 µM) | MIC [6]: 1 µg/mL (≈ 1.08 µM) | MIC ([7]; 48 hr reading): 0.015 µg/mL (≈ 0.0162 µM) | MIC ([7]; 72 hr reading): 0.03 µg/mL (≈ 0.0325 µM) | MIC ([8]; 48 hr reading): 0.25 µg/mL (≈ 0.271 µM) | MIC ([8]; 72 hr reading): 0.5 µg/mL (≈ 0.541 µM) | MIC ([9]; 48 hr reading): 0.03 µg/mL (≈ 0.0325 µM) | MIC ([9]; 72 hr reading): 0.06 µg/mL (≈ 0.0649 µM) | MIC ([10]; 48 hr reading): ≤ 0.004 µg/mL | MIC ([10]; 72 hr reading): 0.015 µg/mL (≈ 0.0162 µM) | MIC ([11]; 48 hr reading): 0.03 µg/mL (≈ 0.0325 µM) | MIC ([11]; 72 hr reading): 0.125 µg/mL (≈ 0.135 µM) | MIC ([12]; 48 hr reading): 0.06 µg/mL (≈ 0.0649 µM) | MIC ([12]; 72 hr reading): 0.06 µg/mL (≈ 0.0649 µM) | MIC ([13]; 48 h, Aspergillus fumigatus 5280 (ATCC MYA-3626) no Tween, 48 hr reading): 1 µg/mL (≈ 1.08 µM) | MIC ([13]; 48 h, Aspergillus fumigatus 5280 (ATCC MYA-3626), 48 hr reading): 0.25 µg/mL (≈ 0.271 µM) | MIC ([13]; 72 h, Aspergillus fumigatus 5280 (ATCC MYA-3626) no Tween, 72 hr reading): 2 µg/mL (≈ 2.16 µM) | MIC ([13]; 72 h, Aspergillus fumigatus 5280 (ATCC MYA-3626), 72 hr reading): 0.5 µg/mL (≈ 0.541 µM) | MIC ([14]; 48 hr reading): 0.06 µg/mL (≈ 0.0649 µM) | MIC ([14]; 72 hr reading): 0.06 µg/mL (≈ 0.0649 µM) | MIC ([15]; 48 hr reading): 0.25 µg/mL (≈ 0.271 µM) | MIC ([15]; 72 hr reading): 0.25 µg/mL (≈ 0.271 µM) | MIC ([16]; 48 hr reading): 0.3 µg/mL (≈ 0.325 µM) | MIC ([16]; 72 hr reading): 0.6 µg/mL (≈ 0.649 µM) | MIC ([17]; 48 hr reading): 0.06 µg/mL (≈ 0.0649 µM) | MIC ([17]; 72 hr reading): 0.06 µg/mL (≈ 0.0649 µM) | MIC ([18]; 48 hr reading): 1 µg/mL (≈ 1.08 µM) | MIC ([18]; 72 hr reading): 2 µg/mL (≈ 2.16 µM) | MIC ([19]; 48 hr reading): 0.06 µg/mL (≈ 0.0649 µM) | MIC ([19]; 72 hr reading): 0.125 µg/mL (≈ 0.135 µM) | MIC [20]: 0.06 µg/mL (≈ 0.0649 µM) | MIC ([21]; 48 hr reading): 0.125 µg/mL (≈ 0.135 µM) | MIC ([21]; 72 hr reading): 0.125 µg/mL (≈ 0.135 µM) | MIC ([22]; 48 hr reading): 0.06 µg/mL (≈ 0.0649 µM) | MIC ([22]; 72 hr reading): 0.25 µg/mL (≈ 0.271 µM) | MIC ([23]; 48 hr reading): 0.125 µg/mL (≈ 0.135 µM) | MIC ([23]; 72 hr reading): 0.125 µg/mL (≈ 0.135 µM) | MIC ([24]; 48 hr reading): 0.008 µg/mL (≈ 0.00866 µM) | MIC ([24]; 72 hr reading): 0.015 µg/mL (≈ 0.0162 µM) | MIC [25]: 0.5 µg/mL (≈ 0.541 µM) | MIC ([26]; ATCC22019, 48 h, Candida parapsilosis 2323 (ATCC22019) no Tween, 48 hr reading): 0.25 µg/mL (≈ 0.271 µM) | MIC ([26]; ATCC22019, 48 h, Candida parapsilosis 2323 (ATCC22019), 48 hr reading): 0.125 µg/mL (≈ 0.135 µM) | MIC ([26]; ATCC22019, 72 h, Candida parapsilosis 2323 (ATCC22019) no Tween, 72 hr reading): 1 µg/mL (≈ 1.08 µM) | MIC ([26]; ATCC22019, 72 h, Candida parapsilosis 2323 (ATCC22019), 72 hr reading): 0.125 µg/mL (≈ 0.135 µM) | MIC ([27]; 48 hr reading): 0.3 µg/mL (≈ 0.325 µM) | MIC ([27]; 72 hr reading): 0.6 µg/mL (≈ 0.649 µM) | MIC ([28]; 48 hr reading): 0.06 µg/mL (≈ 0.0649 µM) | MIC ([28]; 72 hr reading): 0.125 µg/mL (≈ 0.135 µM) | MIC ([29]; 48 hr reading): 0.5 µg/mL (≈ 0.541 µM) | MIC ([29]; 72 hr reading): 0.5 µg/mL (≈ 0.541 µM) | MIC ([30]; 48 hr reading): 0.06 µg/mL (≈ 0.0649 µM) | MIC ([30]; 72 hr reading): 0.125 µg/mL (≈ 0.135 µM) | MIC ([31]; 48 hr reading): 0.3 µg/mL (≈ 0.325 µM) | MIC ([31]; 72 hr reading): 0.6 µg/mL (≈ 0.649 µM) | MIC ([32]; 48 hr reading): 0.3 µg/mL (≈ 0.325 µM) | MIC ([32]; 72 hr reading): 0.6 µg/mL (≈ 0.649 µM)
Compound: C[C@@H]1[C@H](O)[C@@H](C)/C=C/C=C/C=C/C=C/C=C/C=C/C=C/[C@H](O[C@@H]2O[C@H](C)[C@@H](O)[C@H](N)[C@@H]2O)C[C@@H]2O[C@](O)(C[C@@H](O)C[C@@H](O)[C@H](O)CC[C@@H](O)C[C@@H](O)CC(=O)O[C@H]1C)C[C@H](O)[C@H]2C(=O)O [Amphotericin, Amphotericin B]
Amphotericin B CLSI QC Range for A. Fumigatus ATCC MYA-3626 [33]: 0.5-4 at 48 hrs μg/ml | Amphotericin B CLSI QC Range for C. parapsilosis ([34]; 24 hrs): 0.25-2 (24 hrs) μg/ml | Amphotericin B CLSI QC Range for C. parapsilosis ([34]; 48 hrs): 0.5-4 (48 hrs) μg/ml
